Data: patent US8986696B2, “Trans-capsular administration of p38 map kinase inhibitors into orthopedic joints” (DePuy Mitek, Inc., priority 2007, dated 2015)

Assays:
[1] = test system: JNK; assay: JNK inhibition; assay type: biochemical
[2] = test system: LPS-induced TNF human peripheral blood mononuclear cells (hPBMC); assay: LPS-induced TNF in hPBMC; assay type: cell-based
[3] = biological target: COX1 (Homo sapiens, UniProt P23219); assay: COX1 inhibition; assay type: biochemical
[4] = test system: injured cartilage explants, NO production; assay: drop tower design model: NO production; assay type: cell-based, bovine; conditions: cocktail of cytokines
Excerpt: The device comprises a vertical rail that guides a sliding weight from 0.1 kg to 3 kg directly onto a force transducer which is situated at the bottom of the device. A sphere-shaped 2 mm indenter resting on a specimen is located at the bottom of the vertical rail. The indenter is held by a stop screw. The specimen is rigidly attached to a tissue holder underneath the indenter, to avoid side movements, the specimen is rigidly attached to the tissue holder. In this manner, the force transducer transduces a force indirectly onto the specimen. Adjusting the weight of a mass and height from which the mass drops varies the magnitude of the intended impact. […]
In the first method, bovine or human PBMCs were freshly prepared using Ficoll gradient by Lampire Biological Laboratories, Inc. PBMCs in RPMI w/10% FCS at delivery were spun down at 1500 rpm for twenty minutes and the cell pellet was washed twice with 1×PBS to wash off the residual Ficoll. […] Each conditioned medium was assessed for levels of pro-inflammatory cytokines to ensure their secretion from PBMC. […]
Nitrate/Nitrite was measured using the Griess reaction (Green L. C. et al., “Analysis of Nitrate, Nitrite, and [15N]nitrate in Biological Fluids,” Anal. Biochem. 126: 131-138 (1982)) with a Nitrate/Nitrite Colorimetric Assay Kit (Cayman Chemicals), as described in Example III above.

Chain of COX1 (P23219 24-599): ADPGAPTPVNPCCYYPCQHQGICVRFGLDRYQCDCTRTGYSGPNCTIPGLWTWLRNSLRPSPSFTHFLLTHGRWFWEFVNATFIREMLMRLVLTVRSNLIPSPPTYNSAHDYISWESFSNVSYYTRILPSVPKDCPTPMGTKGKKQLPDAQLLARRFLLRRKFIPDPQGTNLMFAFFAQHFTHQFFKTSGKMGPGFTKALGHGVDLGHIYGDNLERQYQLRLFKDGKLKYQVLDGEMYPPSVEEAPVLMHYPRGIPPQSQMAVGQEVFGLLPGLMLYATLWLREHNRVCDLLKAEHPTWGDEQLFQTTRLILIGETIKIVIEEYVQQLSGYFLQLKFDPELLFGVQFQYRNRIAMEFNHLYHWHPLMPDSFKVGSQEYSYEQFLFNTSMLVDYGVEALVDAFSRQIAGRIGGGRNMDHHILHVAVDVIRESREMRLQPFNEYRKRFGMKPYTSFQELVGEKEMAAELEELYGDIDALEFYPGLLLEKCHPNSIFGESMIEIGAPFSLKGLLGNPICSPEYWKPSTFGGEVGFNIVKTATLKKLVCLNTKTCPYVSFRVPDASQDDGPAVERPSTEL

Compound `C[C@H](Nc1nccc(-c2c(-c3ccc(F)cc3)nc3nc(N)ccn23)n1)c1ccccc1` [JNJ 7583979 (RWJ 351958)] has an IC50 [1] of 12 nM.
For `CC(=O)N1CCN(c2c(-c3ccncc3)c(-c3ccc(F)cc3)c(C#N)n2C)CC1` [JNJ 17089540 (RWJ 669307)], the IC50 [2] was 220 nM and the IC50 [3] was > 10000 nM.
In the case of `OCCC#Cc1nc(-c2ccc(F)cc2)c(-c2ccncc2)n1CCCc1ccccc1` [JNJ 3026582 (RWJ 67657), 4-[4-(4-fluorophenyl)-1-(3-phenylpropyl)-5-(4-pyridinyl)-1H-imidazol-2-yl]-3-butyn-1-ol], the “NO production, inhibition” value [4] is reported as “dose-dependently inhibited”.
